Measured values from ChEMBL document CHEMBL5724914, “Linking interpersonal differences in gut microbiota composition and drug biotransformation activity” (2024).

Tests used:
[1] = human gut metagenome, 24 h, 2 µM
[2] = The drug is tested on WLS-090 corresponding to human gut metagenome with ENA study accession number: PRJEB37062 and ENA sample accession number: ERS12561753 for biotransformation under anaerobic condition. The drug concentrations were measured over 9 timepoints collected between 0 and 24 hours of incubation by liquid-chromatography-coupled mass spectrometry (LC–MS); settings: 2 µM
[3] = The drug is tested on Z-030 corresponding to mouse gut metagenome with ENA study accession number: PRJEB37062 and ENA sample accession number: ERS12561829 for biotransformation under anaerobic condition. The drug concentrations were measured over 9 timepoints collected between 0 and 24 hours of incubation by liquid-chromatography-coupled mass spectrometry (LC–MS); settings: 2 µM
[4] = The drug is tested on WLS-086 corresponding to human gut metagenome with ENA study accession number: PRJEB37062 and ENA sample accession number: ERS12561752 for biotransformation under anaerobic condition. The drug concentrations were measured over 9 timepoints collected between 0 and 24 hours of incubation by liquid-chromatography-coupled mass spectrometry (LC–MS); settings: 2 µM
[5] = human gut metagenome, 24 h, 2 µM; remark: listed apart in the source
[6] = human gut metagenome, 24 h, 2 µM; remark: listed apart in the source
[7] = human gut metagenome, 24 h, 2 µM; remark: listed apart in the source
[8] = human gut metagenome, 24 h, 2 µM; remark: listed apart in the source
[9] = human gut metagenome, 24 h, 2 µM; remark: listed apart in the source
[10] = human gut metagenome, 24 h, 2 µM; remark: listed apart in the source
[11] = The drug is tested on Z-029 corresponding to rat gut metagenome with ENA study accession number: PRJEB37062 and ENA sample accession number: ERS12561828 for biotransformation under anaerobic condition. The drug concentrations were measured over 9 timepoints collected between 0 and 24 hours of incubation by liquid-chromatography-coupled mass spectrometry (LC–MS); settings: 2 µM
[12] = The drug is tested on Z-023 corresponding to metagenome with ENA study accession number: PRJEB37062 and ENA sample accession number: ERS12561822 for biotransformation under anaerobic condition. The drug concentrations were measured over 9 timepoints collected between 0 and 24 hours of incubation by liquid-chromatography-coupled mass spectrometry (LC–MS); settings: 2 µM
[13] = human gut metagenome, 24 h, 2 µM; remark: listed apart in the source
[14] = human gut metagenome, 24 h, 2 µM; remark: listed apart in the source
[15] = The drug is tested on WLS-370 corresponding to human gut metagenome with ENA study accession number: PRJEB37062 and ENA sample accession number: ERS12561793 for biotransformation under anaerobic condition. The drug concentrations were measured over 9 timepoints collected between 0 and 24 hours of incubation by liquid-chromatography-coupled mass spectrometry (LC–MS); settings: 2 µM
[16] = human gut metagenome, 24 h, 2 µM; remark: listed apart in the source
[17] = human gut metagenome, 24 h, 2 µM; remark: listed apart in the source
[18] = The drug is tested on Z-009 corresponding to pig gut metagenome with ENA study accession number: PRJEB37062 and ENA sample accession number: ERS12561809 for biotransformation under anaerobic condition. The drug concentrations were measured over 9 timepoints collected between 0 and 24 hours of incubation by liquid-chromatography-coupled mass spectrometry (LC–MS); settings: 2 µM
[19] = The drug is tested on Z-011 corresponding to mouse gut metagenome with ENA study accession number: PRJEB37062 and ENA sample accession number: ERS12561811 for biotransformation under anaerobic condition. The drug concentrations were measured over 9 timepoints collected between 0 and 24 hours of incubation by liquid-chromatography-coupled mass spectrometry (LC–MS); settings: 2 µM
[20] = The drug is tested on Z-004 corresponding to metagenome with ENA study accession number: PRJEB37062 and ENA sample accession number: ERS12561804 for biotransformation under anaerobic condition. The drug concentrations were measured over 9 timepoints collected between 0 and 24 hours of incubation by liquid-chromatography-coupled mass spectrometry (LC–MS); settings: 2 µM
Note: call rule not given here.

Row | SMILES | Bacterial Biotransformation [1] | Bacterial Biotransformation [2] | Bacterial Biotransformation [3] | Bacterial Biotransformation [4] | Bacterial Biotransformation [5] | Bacterial Biotransformation [6] | Bacterial Biotransformation [7] | Bacterial Biotransformation [8] | Bacterial Biotransformation [9] | Bacterial Biotransformation [10] | Bacterial Biotransformation [11] | Bacterial Biotransformation [12] | Bacterial Biotransformation [13] | Bacterial Biotransformation [14] | Bacterial Biotransformation [15] | Bacterial Biotransformation [16] | Bacterial Biotransformation [17] | Bacterial Biotransformation [18] | Bacterial Biotransformation [19] | Bacterial Biotransformation [20]
1 | C[C@@H]1CC[C@H]2[C@@H](C)C(=O)O[C@@H]3O[C@@]4(C)CC[C@@H]1[C@]32OO4 [ARTEMISININ] | Compound metabolized | Compound metabolized | Compound metabolized | Compound metabolized | Compound metabolized | Compound metabolized | Compound metabolized | Compound metabolized | Compound metabolized | Compound metabolized | Compound metabolized | Compound metabolized | Compound NOT metabolized | Compound metabolized | Compound metabolized | Compound metabolized |  |  |  | 
2 | CN1C(=O)CCS(=O)(=O)C1c1ccc(Cl)cc1 (stereo unspecified) [CHLORMEZANONE] | Compound NOT metabolized | Compound metabolized |  | Compound metabolized | Compound NOT metabolized | Compound NOT metabolized | Compound metabolized | Compound NOT metabolized | Compound metabolized | Compound NOT metabolized |  | Compound NOT metabolized | Compound NOT metabolized | Compound NOT metabolized | Compound NOT metabolized | Compound NOT metabolized | Compound NOT metabolized | Compound NOT metabolized | Compound NOT metabolized | Compound NOT metabolized
3 | C#C[C@]1(O)CC[C@H]2[C@@H]3CCC4=Cc5oncc5C[C@]4(C)[C@H]3CC[C@@]21C [DANAZOL] |  | Compound metabolized | Compound metabolized | Compound metabolized |  |  |  | Compound metabolized | Compound metabolized |  | Compound NOT metabolized | Compound metabolized | Compound metabolized |  |  | Compound metabolized | Compound metabolized |  |  | 
4 | CN1C(=O)CC(C)(c2ccccc2)C1=O (stereo unspecified) [METHSUXIMIDE] | Compound NOT metabolized | Compound NOT metabolized |  | Compound metabolized | Compound NOT metabolized | Compound NOT metabolized | Compound metabolized | Compound NOT metabolized | Compound metabolized | Compound NOT metabolized |  | Compound NOT metabolized | Compound NOT metabolized | Compound NOT metabolized | Compound NOT metabolized | Compound NOT metabolized | Compound NOT metabolized | Compound NOT metabolized | Compound NOT metabolized | Compound NOT metabolized
5 | COc1ccccc1N1CCN(CC(O)COc2cccc3ccccc23)CC1 (stereo unspecified) [NAFTOPIDIL] | Compound NOT metabolized | Compound NOT metabolized |  | Compound NOT metabolized | Compound NOT metabolized | Compound NOT metabolized | Compound NOT metabolized | Compound NOT metabolized | Compound NOT metabolized | Compound NOT metabolized |  | Compound metabolized | Compound NOT metabolized | Compound NOT metabolized | Compound NOT metabolized | Compound NOT metabolized | Compound NOT metabolized | Compound NOT metabolized | Compound NOT metabolized | Compound NOT metabolized
6 | Cc1nc2n(c(=O)c1CCN1CCC(c3noc4cc(F)ccc34)CC1)CCCC2O (stereo unspecified) [PALIPERIDONE] | Compound metabolized | Compound metabolized | Compound metabolized | Compound metabolized | Compound metabolized | Compound metabolized | Compound metabolized | Compound metabolized | Compound metabolized | Compound metabolized |  | Compound metabolized | Compound metabolized | Compound metabolized | Compound metabolized | Compound metabolized | Compound metabolized | Compound metabolized | Compound NOT metabolized | 
7 | Cc1ccc(/C(=C\CN2CCCC2)c2ccccn2)cc1 [TRIPROLIDINE] | Compound NOT metabolized | Compound NOT metabolized |  | Compound NOT metabolized | Compound NOT metabolized | Compound NOT metabolized | Compound NOT metabolized | Compound NOT metabolized | Compound metabolized | Compound NOT metabolized |  | Compound NOT metabolized | Compound NOT metabolized | Compound metabolized | Compound NOT metabolized | Compound NOT metabolized | Compound NOT metabolized | Compound NOT metabolized | Compound NOT metabolized | Compound NOT metabolized
